# Measurements taken from PubChem BioAssay (NCI).
#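 The compound was tested at five concentrations on cells cultured in 96-well plates, with a 48-hour exposure period. TGI: concentration producing complete growth inhibition.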
# Tests used:
# Assay in all cases: inhibition of tumour cell growth, NCI panel, 48 h
# 786-0 renal = system: 786-0 renal
# A498 renal = system: A498 renal
# A549 NSCLC = system: A549 NSCLC
# BT-549 breast = system: BT-549 breast
# CAKI-1 renal = system: CAKI-1 renal
# CCRF-CEM leukemia = system: CCRF-CEM leukemia
# COLO 205 colon = system: COLO 205 colon
# DU-145 prostate = system: DU-145 prostate
# EKVX NSCLC = system: EKVX NSCLC
# HCC-2998 colon = system: HCC-2998 colon
# HCT-116 colon = system: HCT-116 colon
# HCT-15 colon = system: HCT-15 colon
# HL-60(TB) leukemia = system: HL-60(TB) leukemia
# HOP-62 NSCLC = system: HOP-62 NSCLC
# HOP-92 NSCLC = system: HOP-92 NSCLC
# HT29 colon = system: HT29 colon
# IGROV1 ovarian = system: IGROV1 ovarian
# K-562 leukemia = system: K-562 leukemia
# KM12 colon = system: KM12 colon
# LOX IMVI melanoma = system: LOX IMVI melanoma
# M14 melanoma = system: M14 melanoma
# MALME-3M melanoma = system: MALME-3M melanoma
# MCF7 breast = system: MCF7 breast
# MDA-MB-231 breast = system: MDA-MB-231 breast
# MDA-MB-435 = system: MDA-MB-435
# MDA-N = system: MDA-N
# MOLT-4 leukemia = system: MOLT-4 leukemia
# NCI-H226 lung = system: NCI-H226 lung
# NCI-H23 lung = system: NCI-H23 lung
# NCI/ADR-RES ovarian = system: NCI/ADR-RES ovarian
# OVCAR-3 ovarian = system: OVCAR-3 ovarian
# OVCAR-4 ovarian = system: OVCAR-4 ovarian
# OVCAR-5 ovarian = system: OVCAR-5 ovarian
# OVCAR-8 ovarian = system: OVCAR-8 ovarian
# PC-3 prostate = system: PC-3 prostate
# RPMI-8226 leukemia = system: RPMI-8226 leukemia
# RXF 393 renal = system: RXF 393 renal
# SF-268 CNS = system: SF-268 CNS
# SF-295 CNS = system: SF-295 CNS
# SF-539 CNS = system: SF-539 CNS
# SK-MEL-2 melanoma = system: SK-MEL-2 melanoma
# SK-MEL-28 melanoma = system: SK-MEL-28 melanoma
# SK-MEL-5 melanoma = system: SK-MEL-5 melanoma
# SK-OV-3 ovarian = system: SK-OV-3 ovarian
# SN12C renal = system: SN12C renal
# SNB-75 CNS = system: SNB-75 CNS
# SR leukemia = system: SR leukemia
# SW-620 colon = system: SW-620 colon
# T-47D breast = system: T-47D breast
# TK-10 renal = system: TK-10 renal
# U251 CNS = system: U251 CNS
# UACC-257 melanoma = system: UACC-257 melanoma
# UACC-62 melanoma = system: UACC-62 melanoma
# ACHN renal = system: ACHN renal
# HS 578T breast = system: HS 578T breast
# NCI-H460 lung = system: NCI-H460 lung
# SNB-19 CNS = system: SNB-19 CNS
# UO-31 renal = system: UO-31 renal
# NCI-H522 lung = system: NCI-H522 lung
smiles,measurement,setting,value
CC1CCCc2c(CC3CC(=O)NC(=O)C3)nc(N)nc21 (centres undefined),TGI,786-0 renal,> 100 µM
same,TGI,A498 renal,> 100 µM
same,TGI,A549 NSCLC,> 100 µM
same,TGI,BT-549 breast,> 100 µM
same,TGI,CAKI-1 renal,> 100 µM
same,TGI,CCRF-CEM leukemia,> 100 µM
same,TGI,COLO 205 colon,> 100 µM
same,TGI,DU-145 prostate,> 100 µM
same,TGI,EKVX NSCLC,> 100 µM
same,TGI,HCC-2998 colon,> 100 µM
same,TGI,HCT-116 colon,> 100 µM
same,TGI,HCT-15 colon,> 100 µM
same,TGI,HL-60(TB) leukemia,> 100 µM
same,TGI,HOP-62 NSCLC,> 100 µM
same,TGI,HOP-92 NSCLC,> 100 µM
same,TGI,HT29 colon,> 100 µM
same,TGI,IGROV1 ovarian,> 100 µM
same,TGI,K-562 leukemia,> 100 µM
same,TGI,KM12 colon,> 100 µM
same,TGI,LOX IMVI melanoma,> 100 µM
same,TGI,M14 melanoma,> 100 µM
same,TGI,MALME-3M melanoma,> 100 µM
same,TGI,MCF7 breast,> 100 µM
same,TGI,MDA-MB-231 breast,> 100 µM
same,TGI,MDA-MB-435,> 100 µM
same,TGI,MDA-N,> 100 µM
same,TGI,MOLT-4 leukemia,> 100 µM
same,TGI,NCI-H226 lung,> 100 µM
same,TGI,NCI-H23 lung,> 100 µM
same,TGI,NCI/ADR-RES ovarian,> 100 µM
same,TGI,OVCAR-3 ovarian,> 100 µM
same,TGI,OVCAR-4 ovarian,> 100 µM
same,TGI,OVCAR-5 ovarian,> 100 µM
same,TGI,OVCAR-8 ovarian,> 100 µM
same,TGI,PC-3 prostate,> 100 µM
same,TGI,RPMI-8226 leukemia,> 100 µM
same,TGI,RXF 393 renal,> 100 µM
same,TGI,SF-268 CNS,> 100 µM
same,TGI,SF-295 CNS,> 100 µM
same,TGI,SF-539 CNS,> 100 µM
same,TGI,SK-MEL-2 melanoma,> 100 µM
same,TGI,SK-MEL-28 melanoma,> 100 µM
same,TGI,SK-MEL-5 melanoma,> 100 µM
same,TGI,SK-OV-3 ovarian,> 100 µM
same,TGI,SN12C renal,> 100 µM
same,TGI,SNB-75 CNS,> 100 µM
same,TGI,SR leukemia,> 100 µM
same,TGI,SW-620 colon,> 100 µM
same,TGI,T-47D breast,> 100 µM
same,TGI,TK-10 renal,> 100 µM
same,TGI,U251 CNS,> 100 µM
same,TGI,UACC-257 melanoma,> 100 µM
same,TGI,UACC-62 melanoma,> 100 µM
c1ccc(C2C3=C(CCCC3)Nc3nnnn32)cc1 (centres undefined),TGI,786-0 renal,> 100 µM
same,TGI,A498 renal,> 100 µM
same,TGI,A549 NSCLC,> 100 µM
same,TGI,ACHN renal,> 100 µM
same,TGI,BT-549 breast,98.4 µM
same,TGI,CAKI-1 renal,> 100 µM
same,TGI,COLO 205 colon,> 100 µM
same,TGI,DU-145 prostate,> 100 µM
same,TGI,HCT-116 colon,> 100 µM
same,TGI,HCT-15 colon,> 100 µM
same,TGI,HL-60(TB) leukemia,> 100 µM
same,TGI,HOP-62 NSCLC,> 100 µM
same,TGI,HS 578T breast,> 100 µM
same,TGI,IGROV1 ovarian,> 100 µM
same,TGI,K-562 leukemia,> 100 µM
same,TGI,KM12 colon,> 100 µM
same,TGI,LOX IMVI melanoma,> 100 µM
same,TGI,M14 melanoma,> 100 µM
same,TGI,MCF7 breast,> 100 µM
same,TGI,MDA-MB-231 breast,> 100 µM
same,TGI,MDA-MB-435,> 100 µM
same,TGI,MDA-N,> 100 µM
same,TGI,MOLT-4 leukemia,> 100 µM
same,TGI,NCI-H23 lung,> 100 µM
same,TGI,NCI-H460 lung,> 100 µM
same,TGI,NCI/ADR-RES ovarian,> 100 µM
same,TGI,OVCAR-3 ovarian,> 100 µM
same,TGI,OVCAR-5 ovarian,> 100 µM
same,TGI,OVCAR-8 ovarian,> 100 µM
same,TGI,PC-3 prostate,> 100 µM
same,TGI,RXF 393 renal,27.8 µM
same,TGI,SF-268 CNS,90.8 µM
same,TGI,SF-295 CNS,> 100 µM
same,TGI,SF-539 CNS,> 100 µM
same,TGI,SK-MEL-2 melanoma,> 100 µM
same,TGI,SK-MEL-5 melanoma,> 100 µM
same,TGI,SK-OV-3 ovarian,> 100 µM
same,TGI,SN12C renal,> 100 µM
same,TGI,SNB-19 CNS,> 100 µM
same,TGI,SR leukemia,> 100 µM
same,TGI,SW-620 colon,> 100 µM
same,TGI,T-47D breast,> 100 µM
same,TGI,U251 CNS,> 100 µM
same,TGI,UACC-257 melanoma,> 100 µM
same,TGI,UACC-62 melanoma,> 100 µM
same,TGI,UO-31 renal,> 100 µM
Nc1nc(Cl)cc(NCC2CC(O)(CO)C2)n1 (centres undefined),TGI,786-0 renal,> 100 µM
same,TGI,A498 renal,> 100 µM
same,TGI,A549 NSCLC,> 100 µM
same,TGI,ACHN renal,> 100 µM
same,TGI,BT-549 breast,> 100 µM
same,TGI,CAKI-1 renal,> 100 µM
same,TGI,CCRF-CEM leukemia,> 100 µM
same,TGI,COLO 205 colon,> 100 µM
same,TGI,DU-145 prostate,> 100 µM
same,TGI,EKVX NSCLC,> 100 µM
same,TGI,HCC-2998 colon,> 100 µM
same,TGI,HCT-116 colon,> 100 µM
same,TGI,HCT-15 colon,> 100 µM
same,TGI,HL-60(TB) leukemia,> 100 µM
same,TGI,HOP-62 NSCLC,> 100 µM
same,TGI,HOP-92 NSCLC,> 100 µM
same,TGI,HS 578T breast,> 100 µM
same,TGI,HT29 colon,> 100 µM
same,TGI,IGROV1 ovarian,> 100 µM
same,TGI,K-562 leukemia,> 100 µM
same,TGI,KM12 colon,> 100 µM
same,TGI,LOX IMVI melanoma,> 100 µM
same,TGI,MALME-3M melanoma,> 100 µM
same,TGI,MCF7 breast,> 100 µM
same,TGI,MDA-MB-231 breast,> 100 µM
same,TGI,MDA-MB-435,> 100 µM
same,TGI,MDA-N,> 100 µM
same,TGI,MOLT-4 leukemia,> 100 µM
same,TGI,NCI-H226 lung,> 100 µM
same,TGI,NCI-H23 lung,> 100 µM
same,TGI,NCI-H460 lung,> 100 µM
same,TGI,NCI-H522 lung,> 100 µM
same,TGI,NCI/ADR-RES ovarian,> 100 µM
same,TGI,OVCAR-3 ovarian,> 100 µM
same,TGI,OVCAR-4 ovarian,> 100 µM
same,TGI,OVCAR-5 ovarian,> 100 µM
same,TGI,OVCAR-8 ovarian,> 100 µM
same,TGI,PC-3 prostate,> 100 µM
same,TGI,RPMI-8226 leukemia,> 100 µM
same,TGI,RXF 393 renal,> 100 µM
same,TGI,SF-268 CNS,> 100 µM
same,TGI,SF-295 CNS,> 100 µM
same,TGI,SF-539 CNS,> 100 µM
same,TGI,SK-MEL-2 melanoma,> 100 µM
same,TGI,SK-MEL-28 melanoma,> 100 µM
same,TGI,SK-MEL-5 melanoma,> 100 µM
same,TGI,SK-OV-3 ovarian,> 100 µM
same,TGI,SN12C renal,> 100 µM
same,TGI,SNB-75 CNS,> 100 µM
same,TGI,SW-620 colon,> 100 µM
same,TGI,T-47D breast,> 100 µM
same,TGI,TK-10 renal,> 100 µM
same,TGI,U251 CNS,> 100 µM
same,TGI,UACC-257 melanoma,> 100 µM
same,TGI,UACC-62 melanoma,> 100 µM
same,TGI,UO-31 renal,> 100 µM
O=C1/C(=C/Cc2ccco2)N=C(c2ccccc2)N1c1nc2c(Cl)cc(Cl)cc2s1,TGI,786-0 renal,> 100 µM
same,TGI,A498 renal,43.4 µM
same,TGI,A549 NSCLC,80.7 µM
same,TGI,ACHN renal,74.6 µM
same,TGI,BT-549 breast,83.5 µM
same,TGI,CAKI-1 renal,> 100 µM
same,TGI,CCRF-CEM leukemia,39.8 µM
same,TGI,COLO 205 colon,> 100 µM
same,TGI,DU-145 prostate,> 100 µM
same,TGI,EKVX NSCLC,76.2 µM
same,TGI,HCC-2998 colon,> 100 µM
same,TGI,HCT-116 colon,81.2 µM
same,TGI,HCT-15 colon,> 100 µM
same,TGI,HL-60(TB) leukemia,49.9 µM
same,TGI,HOP-62 NSCLC,> 100 µM
same,TGI,HOP-92 NSCLC,87.4 µM
same,TGI,HS 578T breast,57.4 µM
same,TGI,HT29 colon,98.2 µM
same,TGI,IGROV1 ovarian,> 100 µM
same,TGI,K-562 leukemia,> 100 µM
same,TGI,KM12 colon,> 100 µM
same,TGI,LOX IMVI melanoma,> 100 µM
same,TGI,M14 melanoma,> 100 µM
same,TGI,MCF7 breast,> 100 µM
same,TGI,MDA-MB-231 breast,82.2 µM
same,TGI,MDA-MB-435,60.1 µM
same,TGI,MDA-N,47.9 µM
same,TGI,MOLT-4 leukemia,33.3 µM
same,TGI,NCI-H460 lung,> 100 µM
same,TGI,NCI/ADR-RES ovarian,84.5 µM
same,TGI,OVCAR-3 ovarian,52.6 µM
same,TGI,OVCAR-4 ovarian,75.6 µM
same,TGI,OVCAR-5 ovarian,> 100 µM
same,TGI,OVCAR-8 ovarian,> 100 µM
same,TGI,PC-3 prostate,74.8 µM
same,TGI,RPMI-8226 leukemia,35.4 µM
same,TGI,RXF 393 renal,40.6 µM
same,TGI,SF-268 CNS,89.2 µM
same,TGI,SF-295 CNS,> 100 µM
same,TGI,SF-539 CNS,61.3 µM
same,TGI,SK-MEL-2 melanoma,63.5 µM
same,TGI,SK-MEL-28 melanoma,> 100 µM
same,TGI,SK-MEL-5 melanoma,> 100 µM
same,TGI,SK-OV-3 ovarian,> 100 µM
same,TGI,SN12C renal,> 100 µM
same,TGI,SNB-19 CNS,> 100 µM
same,TGI,SR leukemia,38.7 µM
same,TGI,SW-620 colon,> 100 µM
same,TGI,T-47D breast,73.5 µM
same,TGI,TK-10 renal,> 100 µM
same,TGI,U251 CNS,83.5 µM
same,TGI,UACC-257 melanoma,> 100 µM
same,TGI,UACC-62 melanoma,> 100 µM
same,TGI,UO-31 renal,72.8 µM
